Source: patent publication US5294713A, “2-piperazinone compounds and their use” (Takeda Chemical Industries, Ltd., priority 1991, dated 1994)

What was measured:
[1] = tested on: guinea pig platelet aggregation; assay: Inhibitory action on guinea pig platelet aggregation (ADP-stimulated PRP); format: cell-based; conditions: Cavia porcellus, ADP final concentration 1 μM, in vitro, read-out: Inhibitory effect on platelet aggregation in vitro (IC50) guinea pig
Experimental: TEST EXAMPLE 1 [I] Inhibitory action on guinea pig platelet aggregation
Blood was collected in 3.15% sodium citrate (1 ml for 9 ml of blood) by cardiac puncture from male guinea pig. The blood was centrifuged at 1000 g for 3 to 5 seconds at room temperature to obtain platelet rich plasma (PRP). The PRP was further centrifuged at 1000 g for 10 minutes to obtain platelet poor plasma (PPP). The number of platelets was measured using an automatic blood cell counter (Sysmex E2500, Toaiyou-densi). The platelet density of PRP was adjusted to 400,000/μl with PPP. Platelet aggregation was measured using an 8-channel aggregometer (NBS HEMA TRACER VI Niko Bioscience Inc.). The PRP (250 μl ) was preincubated at 37° C. for 2 minutes. and then incubated for 2 minutes. with 25 μl of physiological saline or various concentrations of test drugs followed by stimulation with ADP (final concentration: 1 μM). By comparing the maximum aggregation rates of the control and those of test drugs, the inhibitory rates were determined. The results are shown in [Table 1]-[Table 3].

[2] = tested on: human platelet aggregation; assay: Inhibitory action on human platelet aggregation (ADP-stimulated PRP); format: cell-based; conditions: ADP final concentration 3 μM, in vitro, read-out: Inhibitory effect on platelet aggregation in vitro (IC50) man
Experimental: [II] Inhibitory action on human platelet aggregation
Human blood was collected in 3.8% sodium citrate (1 ml for 9 ml of blood) by venipuncture from healthy male volunteers. The blood was centrifuged at 1000 g for 3 to 5 seconds at room temperature to obtain platelet rich plasma (PRP). The PRP was further centrifuged at 1000 g for 10 minutes to obtain platelet poor plasma (PPP). The number of platelets was measured using an automatic blood cell counter (Sysmex E2500, Toaiyou-densi). The platelet density of PRP was adjusted to 300,000/μl with PPP. Platelet aggregation was measured using an 8-channel aggregometer (NBS HEMA TRACER VI Niko Bioscience Inc.). The PRP (250 μl) was preincubated at 37° C. for 2 minutes. and then incubated for 2 minutes. with 25 μl of physiological saline or various concentrations of test drugs followed by stimulation with ADP (final concentration: 3 μM). By comparing the maximum aggregation rates of the control and those of test drugs, the inhibitory rates were determined. The results are shown in [Table 1]-[Table 3].

[3] = target: T1, GPIIb/IIIa (Homo sapiens, UniProt P05106+P08514); assay: Inhibition of fibrinogen binding to GPIIb/IIIa; conditions: purified GPIIb/IIIa from HEL cells, biotinylated human fibrinogen 1 nM
T1 construct: Purification of GPIIb/IIIa from HEL Cells; endogenous in cells; host or cells: HEL cells (HEL 92.1.7; ATCC TIB180), human erythroleukemia; GPIIb/IIIa solubilized in Triton X-100, purified and adsorbed on microtiter plates
Experimental: (1) Cultibation of Cells Derived from Human Erythroleukemia (Hereinafter Referred to as HEL Cells)
HEL cells (HEL 92. 1. 7; ATCC No. TIB180) were purchased from ATCC (Rockville, Md., U.S.A.). The cells were grown in RPMI medium containing 40 mM N-2-hydroxyethylpiperazin-N'-2-ethanesulfonic acid (hereinafter referred to as HEPES) (pH 7.0), 100 μg/ml of Kanamycin and 10% FCS (GIBCO Laboratories, Grand Island, N.Y., U.S.A.). Cultivation was conducted at 37° C in the presence of 5% CO2.
(2) Purification of GPIIb/IIIa from HEL Cells
Purification of GPIIb/IIIa was performed using the following modification of the method of L. A. Fitzgerald et al. [J. Biol. Chem., 262, 3936 (1987)]. The purification was conducted at room temperature unless specifically mentioned. From 7 L of the culture broth on 7th day of the cultibation (floating cells), the cells were collected by centrifugation (1,000×g, 10 minutes, 4° C.), which were washed with 20 mM Tris-HCl(pH 7.5) containing 1 mM EDTA and 150 mM NaCl. The cells were suspended in 80 ml of a solubilized buffer [20 mM Tris-HCl, 150 mM NaCl, 1% Triton X-100, 1 mM MgCl2, 1 mM CaCl2, 0.1 mM (p-amidinophenyl)methanesulfonyl fluoride (hereinafter referred to as APMSF), 10 nM leupeptin, 0.02% NaN3, pH 7.4)].
The cell suspension was gently mixed for 30 minutes at 4° C. to solubilize GPIIb/IIIa. The suspension was subjected to centrigugation (100,000×g, one hour) at 4° C. to remove cell debris to obtain a cell-extraction solution (60 ml). […] The fraction which passed through the column was charged on the ConA-Sepharose column (Pharmacia LKB, .phi. 1.0×15 cm, 20 ml/hr) to allow GPIIb/IIIa to be adsorbed thereon, then GPIIb/IIIa was eluted with column buffer solution containing 0.5 M methyl α-D-mannopyranoside. The eluate thus obtained was allowed to pass through the DEAE-Toyopearl 650 M column (Tosoh, .phi. 1.6×10.5 cm, 20 ml/hr) equilibrated with the same column buffer to remove contaminating proteins.
(3) Biotinylation of Human Fibrinogen
Biotinylation of human fibrinogen was performed by the following procedure [I. F. Charo et al., J. Biol. Chem., 266, 1415 (1991)]. Human fibrinogen (Kabi Vitrum AB, Stockholm, Sweden) was dissolved in PBS so as to make its concentration 5 mg/ml. The solution was dialyzed overnight at 4° C. against 1 L of 0.1 M NaHCO3 -0.1 M NaCl (pH 8.2). Insolubles were then removed by centrifugation (100,000×g, 30 minutes), and the solution was diluted with the same buffer to the protein concentration of 1 mg/ml. To thus-diluted solution was added powdery sulfo-N-hydroxysuccinimidobiotin (Pierce Chemical Co., Rockford, Ill., U.S.A.) so as to make its final concentration 0.2 mg/ml and gently mixed to perform biotinylate fibrinogen. The resultant was subjected to dialysis against 50 mM Tris-HCl (pH 7.4) - 100 mM NaCl-0.05% NaN3. The dialysate was distributed and stored at 4° C.
(4) Inhibition Assay for Fibrinogen Binding to GPIIb/IIIa
This experiment was performed using a modification of the method described in the above-mentioned I. F. Charo et al. report. The purified GPIIb/IIIa was diluted with the buffer A (20 mM Tris-HCl, 150 mM NaCl, 1 mM CaCl2, 0.02% NaN3, pH 7.4) to a concentration of 1 μg/ml. The diluted solution was added to 96-well microtiter plates (MaxiSorp; Nunc, Denmark) at 100 μl per well, which were left standing at 4° C. overnight to allow GPIIb/IIIa to be adsorbed on the microplates. The plate was aspirated, and then 150 μl of the buffer B (35 mg/ml BSA, 50 mM Tris-HCl, 100 mM NaCl, 2 mM CaCl2, 0.02%, NaN3, pH 7.4) was added to the plate, and blocking was performed at 30° C. for 2 hours. The plate was washed twice with 250 μl each of the buffer C (1 mg/ml BSA, 50mM Tris-HCl, 100 mM NaCl, 2 mM CaCl2, pH 7.4).

T1 sequence (P08514 32-887 limits assumed): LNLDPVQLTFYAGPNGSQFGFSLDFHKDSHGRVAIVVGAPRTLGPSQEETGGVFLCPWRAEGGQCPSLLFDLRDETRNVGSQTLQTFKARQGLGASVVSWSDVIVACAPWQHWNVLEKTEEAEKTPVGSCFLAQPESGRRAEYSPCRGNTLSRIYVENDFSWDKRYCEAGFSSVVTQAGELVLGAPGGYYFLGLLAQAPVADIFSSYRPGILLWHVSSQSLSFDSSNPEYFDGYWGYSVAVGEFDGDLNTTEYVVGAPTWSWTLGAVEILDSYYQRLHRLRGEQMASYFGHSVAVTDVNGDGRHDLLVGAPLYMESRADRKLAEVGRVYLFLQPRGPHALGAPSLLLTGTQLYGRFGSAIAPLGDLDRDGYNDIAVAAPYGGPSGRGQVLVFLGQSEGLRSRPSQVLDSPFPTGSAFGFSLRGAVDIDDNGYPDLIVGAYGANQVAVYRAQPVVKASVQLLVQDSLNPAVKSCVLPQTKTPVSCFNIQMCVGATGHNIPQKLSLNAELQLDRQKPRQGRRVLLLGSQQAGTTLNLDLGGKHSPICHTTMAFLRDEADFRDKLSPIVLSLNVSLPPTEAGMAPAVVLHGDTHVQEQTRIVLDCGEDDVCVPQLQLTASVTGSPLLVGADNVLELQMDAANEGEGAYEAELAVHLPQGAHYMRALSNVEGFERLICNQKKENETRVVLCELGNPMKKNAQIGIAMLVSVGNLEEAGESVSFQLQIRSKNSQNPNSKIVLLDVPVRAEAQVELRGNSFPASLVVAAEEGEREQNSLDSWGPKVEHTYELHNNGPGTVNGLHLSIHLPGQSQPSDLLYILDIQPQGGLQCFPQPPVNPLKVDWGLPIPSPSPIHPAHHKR
T1 sequence (P08514 891-1039 limits assumed): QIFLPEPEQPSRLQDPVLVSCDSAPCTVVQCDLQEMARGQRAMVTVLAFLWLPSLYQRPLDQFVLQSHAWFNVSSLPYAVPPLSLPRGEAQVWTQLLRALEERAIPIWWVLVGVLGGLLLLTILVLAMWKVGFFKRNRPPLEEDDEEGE
T1 sequence (P05106 27-788): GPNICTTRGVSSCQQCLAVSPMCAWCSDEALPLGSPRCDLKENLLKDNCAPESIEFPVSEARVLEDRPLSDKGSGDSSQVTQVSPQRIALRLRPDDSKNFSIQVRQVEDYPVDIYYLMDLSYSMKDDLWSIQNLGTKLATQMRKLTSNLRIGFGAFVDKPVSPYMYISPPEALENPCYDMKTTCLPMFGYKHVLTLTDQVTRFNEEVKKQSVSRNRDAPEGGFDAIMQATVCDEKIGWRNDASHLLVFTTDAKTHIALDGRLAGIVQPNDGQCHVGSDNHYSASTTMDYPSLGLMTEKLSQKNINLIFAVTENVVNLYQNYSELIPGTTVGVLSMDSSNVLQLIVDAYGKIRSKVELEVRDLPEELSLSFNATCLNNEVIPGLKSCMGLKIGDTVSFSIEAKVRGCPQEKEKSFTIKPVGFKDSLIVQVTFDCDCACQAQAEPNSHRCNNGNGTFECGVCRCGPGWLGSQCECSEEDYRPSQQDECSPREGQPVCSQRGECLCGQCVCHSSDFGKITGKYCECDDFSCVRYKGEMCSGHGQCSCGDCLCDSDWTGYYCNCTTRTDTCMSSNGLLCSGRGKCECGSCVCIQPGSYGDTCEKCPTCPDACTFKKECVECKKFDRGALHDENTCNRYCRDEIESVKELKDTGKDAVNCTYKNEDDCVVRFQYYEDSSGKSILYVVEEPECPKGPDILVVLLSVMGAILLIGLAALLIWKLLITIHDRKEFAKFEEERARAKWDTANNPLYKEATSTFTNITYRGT

SMILES	IC50 [1] [nM]	IC50 [2] [nM]	IC50 [3] [nM]
N=C(N)NC[C@H]1CC[C@H](C(=O)NCC(=O)N2CCN(CC(=O)O)C(=O)[C@@H]2CC(=O)O)CC1 [compound 5]	3800	1100	20
N=C(N)NCCCCC(=O)NCC(=O)N1CCN(CC(=O)O)C(=O)[C@@H]1CC(=O)O [compound 6]			46
N=C(N)NCc1ccc(C(=O)NCC(=O)N2CCN(CC(=O)O)C(=O)[C@@H]2CC(=O)O)cc1 [compound 8]	1300	660	18
N=C(N)NCc1cccc(C(=O)NCC(=O)N2CCN(CC(=O)O)C(=O)[C@@H]2CC(=O)O)c1 [compound 9]			73
N=C(N)Nc1ccc(C(=O)NCC(=O)N2CCN(CC(=O)O)C(=O)[C@@H]2CC(=O)O)cc1 [compound 10]	340	260	4.8
CN(CC(=O)N1CCN(CC(=O)O)C(=O)[C@@H]1CC(=O)O)C(=O)[C@H]1CC[C@H](CNC(=N)N)CC1 [compound 12]	1100	700	10
N=C(N)NC[C@H]1CC[C@H](C(=O)NCC(=O)N2CCN(CC(=O)O)C(=O)[C@@H]2Cc2ccccc2)CC1 [compound 16]	4600	990	32
N=C(N)NC[C@H]1CC[C@H](C(=O)NCC(=O)N2CCN(CC(=O)O)C(=O)[C@@H]2CC(N)=O)CC1 [compound 22]	4400	720	23
N=C(N)NC[C@H]1CC[C@H](C(=O)NCC(=O)N2CCN(CC(=O)O)C(=O)[C@@H]2CCC(=O)O)CC1 [compound 32]	3100	960	15
N=C(N)NC[C@H]1CC[C@H](C(=O)NCC(=O)N2CCN(CC(=O)O)C(=O)C2)CC1 [compound 35]	5200	1100	
N=C(N)NC[C@H]1CC[C@H](C(=O)N[C@@H](Cc2ccccc2)C(=O)N2CCN(CC(=O)O)C(=O)C2)CC1 [compound 37]	7000	520	7.9
N=C(N)N1CCC(C(=O)NCC(=O)N2CCN(CC(=O)O)C(=O)[C@@H]2CC(=O)O)CC1 [compound 38]	9600	1600	21
N=C(N)c1ccc(C(=O)NCC(=O)N2CCN(CC(=O)O)C(=O)[C@@H]2CC(=O)O)cc1 [compound 39]	165	110	1
N=C(N)c1ccc(CC(=O)NCC(=O)N2CCN(CC(=O)O)C(=O)[C@@H]2CC(=O)O)cc1 [compound 45]	1600	1500	8.1
NCCc1ccc(C(=O)NCC(=O)N2CCN(CC(=O)O)C(=O)[C@@H]2CC(=O)O)cc1 [compound 46]	130	230	2.5
NCc1ccc(C(=O)NCC(=O)N2CCN(CC(=O)O)C(=O)[C@@H]2CC(=O)O)cc1 [compound 47]		4200	
NCCCc1ccc(C(=O)NCC(=O)N2CCN(CC(=O)O)C(=O)[C@@H]2CC(=O)O)cc1 [compound 48]			15
N=C(N)Nc1ccc(C(=O)N2CCC[C@H]2C(=O)N2CCN(CC(=O)O)C(=O)[C@@H]2CC(=O)O)cc1 [compound 50]	345		21
CN(CC(=O)N1CCN(CC(=O)O)C(=O)[C@@H]1CC(=O)O)C(=O)c1ccc(NC(=N)N)cc1 [compound 51]	370	460	
N=C(N)c1ccc(C(=O)NCC(=O)N2CCN([C@@H](Cc3ccccc3)C(=O)O)C(=O)[C@@H]2CC(=O)O)cc1 [compound 54]	4100	660	6.1
N=C(N)c1ccc(C(=O)NCC(=O)N2CCN(CC(=O)O)C(=O)C2)cc1 [compound 55]	210	94	0.42
COC(=O)CN1CCN(C(=O)CNC(=O)c2ccc(C(=N)N)cc2)[C@@H](CC(=O)O)C1=O [compound 57]	1750	2600	20
COC(=O)C[C@H]1C(=O)N(CC(=O)O)CCN1C(=O)CNC(=O)c1ccc(C(=N)N)cc1 [compound 59]	56	48	0.49
COC(=O)C[C@H]1C(=O)N(CC(=O)O)CCN1C(=O)CNC(=O)c1ccc(CCN)cc1 [compound 60]	78	93	0.91
N=C(N)c1ccc(C(=O)NCC(=O)N2CCN(CC(=O)O)C(=O)[C@@H]2Cc2ccccc2)cc1 [compound 61]	160	130	
CC(C)(C)C(=O)OCOC(=O)CN1CCN(C(=O)CNC(=O)c2ccc(C(=N)N)cc2)[C@@H](Cc2ccccc2)C1=O [compound 63]	460	720	8.9
CCC(C)[C@H]1C(=O)N(CC(=O)O)CCN1C(=O)CNC(=O)c1ccc(NC(=N)N)cc1 (stereo partly shown) [compound 65]	4600		98
N=C(N)c1ccc(C(=O)NCC(=O)N2CCN(CC(=O)O)C(=O)[C@@H]2CCC(=O)O)cc1 [compound 66]	66	52	0.2
COC(=O)CC[C@H]1C(=O)N(CC(=O)O)CCN1C(=O)CNC(=O)c1ccc(CCN(C)C)cc1 [compound 81]	2300		37
